34 compounds from ChEMBL document CHEMBL3784925, “Discovery of a New Inhibitor of Myeloid Differentiation 2 from Cinnamamide Derivatives with Anti-Inflammatory Activity in Sepsis and Acute Lung Injury” (J Med Chem, 2016) can be followed below.

Molecules are shown by their SMILES. Calls of active or inactive are those of the source. The rule behind the calls is not given here.

In the first data set the target is T1, Lymphocyte antigen 96 (Mus musculus) (UniProt Q9JHF9).
T1 sequence (whole entry): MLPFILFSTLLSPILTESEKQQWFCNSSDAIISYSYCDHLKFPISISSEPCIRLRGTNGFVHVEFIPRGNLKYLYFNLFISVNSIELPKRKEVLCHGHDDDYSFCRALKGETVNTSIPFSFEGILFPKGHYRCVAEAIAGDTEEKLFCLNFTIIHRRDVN
Briefly: Inhibition of MD2/TLR4 complex formation in C57BL/6 mouse primary peritoneal macrophages assessed as reversal of LPS-induced […] at 10 uM preincubated for 30 mins followed by LPS addition measured after 1 hr by DAPI staining based fluorescence microscopic analysis.
Details: not given
On to `COc1nccc(-c2c(-c3ccc(F)cc3)ncn2[C@H]2CC[C@H](O)CC2)n1`, for which the inhibition entry was “inactive”.

`COc1cccc(-c2cc(=O)c3ccccc3o2)c1N`: the inhibition result is “inactive”.

For the next data set, the target named is T2, Lymphocyte antigen 96 (Homo sapiens) (UniProt Q9Y6Y9).
T2 sequence (whole entry): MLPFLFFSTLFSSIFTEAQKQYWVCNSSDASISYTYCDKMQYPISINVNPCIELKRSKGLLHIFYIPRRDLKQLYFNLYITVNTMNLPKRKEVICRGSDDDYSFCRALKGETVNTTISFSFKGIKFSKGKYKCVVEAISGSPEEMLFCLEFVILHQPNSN
Put plainly: Binding affinity to recombinant human MD2 (17 to 160 residues) expressed in Escherichia coli BL21(DE3) cells at 6.25 to 100 uM by surface plasmon resonance analysis.
Details: not given
Background: In SPR one partner is held on a chip, and binding of the other changes the refractive index at the surface.
As for `COc1ccc(CNC(=O)/C=C/c2cccc(Cl)c2Cl)cc1OC`, the outcome was inactive.

System in another data set: not listed separately
Briefly: Cytotoxicity against C57BL/6 mouse primary peritoneal macrophages assessed as reduction in cell viability at 10 uM after 24 hrs by MTT assay. The data set is classed as cell-based. To be noted: peritoneal macrophage cell. For orientation: Tetrazolium assays rely on reduction of a dye to a coloured formazan, in cell work by metabolically active cells.
Consider `O=C(/C=C/c1cccc(Cl)c1Cl)NCc1ccc(Cl)cc1`, for which the Activity entry is “Non-toxic”.

As for `COc1ccc(CCNC(=O)/C=C/c2ccc(O)c(OC)c2)cc1`, the Activity entry is “Non-toxic”.

As to `COc1cc(/C=C/C(=O)NCCc2ccccc2)ccc1O`, the Activity entry was “Non-toxic”.

With `COc1ccc(/C=C/C(=O)NCc2ccc(F)cc2)c(OC)c1`, the Activity result is listed as “Non-toxic”.

Take `O=C(/C=C/c1cccc(Cl)c1Cl)NCCc1ccccc1`: the Activity entry was “Non-toxic”.

Consider `COc1ccc(CCNC(=O)/C=C/c2ccc(OC)cc2OC)cc1`, for which the Activity entry is on record as “Non-toxic”.

`COc1cc(/C=C/C(=O)NCc2ccccc2)ccc1O`: the Activity result is “Non-toxic”.

Consider `COc1ccc(CCNC(=O)/C=C/c2cccc(Cl)c2Cl)cc1`, for which the Activity entry was “Non-toxic”.

As to `COc1ccc(CNC(=O)/C=C/c2cccc(Cl)c2Cl)cc1OC`, the Activity result is “Non-toxic”.

Take `COc1ccc(/C=C/C(=O)NCc2ccc(OC)c(OC)c2)c(OC)c1`: the Activity result is listed as “Non-toxic”.

Consider `COc1ccc(/C=C/C(=O)NCc2ccc(Cl)cc2)c(OC)c1`, for which the Activity entry is given as “Non-toxic”.

For `COc1cc(/C=C/C(=O)NCc2ccc(OC)c(OC)c2)ccc1O`, the Activity result is recorded as “Non-toxic”.

Regarding `COc1cc(/C=C/C(=O)NCCCc2ccccc2)ccc1O`, the Activity entry was “Non-toxic”.

Regarding `COc1cc(/C=C/C(=O)NCCCCCCNC(=O)/C=C/c2ccc(O)c(OC)c2)ccc1O`, the Activity entry is given as “Non-toxic”.

On to `COc1cc(/C=C/C(=O)NCc2ccc(Cl)cc2)ccc1O`, for which the Activity entry is on record as “Non-toxic”.

Take `CCCCNC(=O)/C=C/c1cccc(Cl)c1Cl`: the Activity result is listed as “Non-toxic”.

For `COc1cc(/C=C/C(=O)NCCNC(=O)/C=C/c2ccc(O)c(OC)c2)ccc1O`, the Activity result was “Non-toxic”.

Turning to `COc1ccc(/C=C/C(=O)NCc2ccccc2)c(OC)c1`, the Activity entry is reported as “Non-toxic”.

On to `COc1ccc(/C=C/C(=O)NCCCc2ccccc2)c(OC)c1`, for which the Activity entry was “Non-toxic”.

As to `CCCCNC(=O)/C=C/c1ccc(OC)cc1OC`, the Activity entry was “Non-toxic”.

Turning to `COc1ccc(/C=C/C(=O)N2CCOCC2)c(OC)c1`, the Activity result is “Non-toxic”.

`COc1ccc(/C=C/C(=O)NCCCCCCNC(=O)/C=C/c2ccc(OC)cc2OC)c(OC)c1`: the Activity entry is given as “Non-toxic”.

Regarding `COc1cc(/C=C/C(=O)N2CCOCC2)ccc1O`, the Activity entry was “Non-toxic”.

Regarding `O=C(/C=C/c1cccc(Cl)c1Cl)NCc1ccccc1`, the Activity entry is “Non-toxic”.

As for `O=C(/C=C/c1cccc(Cl)c1Cl)N1CCOCC1`, the Activity result was “Non-toxic”.

Consider `COc1cc(/C=C/C(=O)NCc2ccc(F)cc2)ccc1O`, for which the Activity result is “Non-toxic”.

Consider `COc1ccc(/C=C/C(=O)NCCc2ccccc2)c(OC)c1`, for which the Activity entry is “Non-toxic”.

`CCCCNC(=O)/C=C/c1ccc(O)c(OC)c1`: the Activity result is recorded as “Non-toxic”.

Take `O=C(/C=C/c1cccc(Cl)c1Cl)NCCCCCCNC(=O)/C=C/c1cccc(Cl)c1Cl`: the Activity entry is “Non-toxic”.

Regarding `O=C(/C=C/c1cccc(Cl)c1Cl)NCc1ccc(F)cc1`, the Activity result was “Non-toxic”.

Turning to `O=C(/C=C/c1cccc(Cl)c1Cl)NCCCc1ccccc1`, the Activity result was “Non-toxic”.

As for `O=C(/C=C/c1cccc(Cl)c1Cl)NCCNC(=O)/C=C/c1cccc(Cl)c1Cl`, the Activity entry is given as “Non-toxic”.
